The assay concerns CD2F1 mice, L1210 leukemia ip, survival T/C. Description: NCI In Vivo Anticancer Drug Screen. Data for tumor model L1210 Leukemia (intraperitoneal) in CD2F1 (CDF1) mice. The conditions noted are these: higher = longer survival. In short, it runs like this: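 Mice carrying a transplanted tumor received test compound or vehicle alone. The value is the measurement in the treated group divided by that in the vehicle-treated control group.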

Where [1] appears, read: endpoint: mean survival time, dose: 100.0 mg/kg/injection, schedule: Q01DX009 (ip), vehicle: saline with Tween-80.
[2] abbreviates: endpoint: mean survival time, dose: 100.0 mg/kg/injection, schedule: Q04DX003 (ip), vehicle: saline with Tween-80.
[3] abbreviates: endpoint: mean survival time, dose: 100.0 mg/kg/injection, schedule: Q01DX001 (ip), vehicle: saline with Tween-80.
[4] abbreviates: endpoint: mean survival time, dose: 200.0 mg/kg/injection, schedule: Q01DX001 (ip), vehicle: saline with Tween-80.
The mark [5] stands for this setting: endpoint: mean survival time, dose: 400.0 mg/kg/injection, schedule: Q01DX001 (ip), vehicle: saline with Tween-80.
[6] abbreviates: endpoint: mean survival time, dose: 100.0 mg/kg/injection, schedule: Q01DX001 (ip), vehicle: saline.
Setting [7] is: endpoint: mean survival time, dose: 200.0 mg/kg/injection, schedule: Q01DX001 (ip), vehicle: saline.
Setting [8] is: endpoint: mean survival time, dose: 400.0 mg/kg/injection, schedule: Q01DX001 (ip), vehicle: saline.
The mark [9] stands for this setting: endpoint: mean survival time, dose: 100.0 mg/kg/injection, schedule: Q04DX002 (ip), vehicle: saline with Tween-80.

Several values for one entry are separate records, joined by “and”; a condition that tells them apart may be missing. Equal values may be shown once. Inconclusive results and toxic doses are left out.

As to `O=C(Nc1ccc(C2=NCCN2)cc1)c1ccc(C(=O)Nc2ccc(C3=NCCN3)cc2)c(NC(=O)c2ccc(C(=O)Nc3cc(C(=O)Nc4ccc(C5=NCCN5)cc4)ccc3C(=O)Nc3ccc(C4=NCCN4)cc3)cc2)c1`, the T/C is 101 % of control (endpoint: mean survival time, dose: 12.5 mg/kg/injection, schedule: Q01DX008 (iv), vehicle: other); 101 % of control (endpoint: mean survival time, dose: 25.0 mg/kg/injection, schedule: Q01DX008 (iv), vehicle: other); 103 % of control (endpoint: mean survival time, dose: 50.0 mg/kg/injection, schedule: Q01DX008 (iv), vehicle: other).

For the compound `O=C(O)c1cccc2c1-c1ccccc1C(Br)C2Br` (stereo not drawn), the T/C by setting is: (endpoint: mean survival time, dose: 25.0 mg/kg/injection, schedule: Q01DX009 (ip), vehicle: saline with Tween-80) 93 % of control; (endpoint: mean survival time, dose: 50.0 mg/kg/injection, schedule: Q01DX005 (ip), vehicle: saline with Tween-80) 100 % of control; (endpoint: mean survival time, dose: 50.0 mg/kg/injection, schedule: Q01DX009 (ip), vehicle: saline with Tween-80) 93 % of control; (endpoint: mean survival time, dose: 100.0 mg/kg/injection, schedule: Q01DX005 (ip), vehicle: saline with Tween-80) 88 % of control; under setting [1], 89 % of control.

`COc1ccc(CSc2nn(C3OC(COC(=O)c4ccccc4)C(OC(=O)c4ccccc4)C3OC(=O)c3ccccc3)c(=O)[nH]c2=S)cc1` (stereo not drawn): the T/C is, setting by setting: (endpoint: mean survival time, dose: 12.5 mg/kg/injection, schedule: Q01DX005 (ip), vehicle: distilled water + Tween-80) 104 % of control; (endpoint: mean survival time, dose: 25.0 mg/kg/injection, schedule: Q01DX005 (ip), vehicle: distilled water + Tween-80) 101 % of control; (endpoint: mean survival time, dose: 50.0 mg/kg/injection, schedule: Q01DX005 (ip), vehicle: distilled water + Tween-80) 93 % of control; (endpoint: mean survival time, dose: 100.0 mg/kg/injection, schedule: Q01DX005 (ip), vehicle: distilled water + Tween-80) 93 % of control; (endpoint: mean survival time, dose: 200.0 mg/kg/injection, schedule: Q01DX005 (ip), vehicle: distilled water + Tween-80) 90 % of control.

With `Cn1cc(C(O)CN2CCCCC2)c2ccccc21` (stereo not drawn), the T/C under setting [2] was 93 % of control.

On to `CC1(C)CCC2(CC1)CC(=O)OC(=O)C2`, for which the T/C reads like this: under setting [3], 90 % of control; under setting [4], 87 % of control; under setting [5], 92 % of control.

Take `CN(C(=O)Nc1cccc([N+](=O)[O-])c1)c1ccccc1`: the T/C runs as follows: under setting [6], 102 % of control; under setting [7], 98 % of control; under setting [8], 98 % of control.

In the case of `CCOC(=O)Nc1cc(N)c(N)c(=O)[nH]1`, the T/C reads like this: (endpoint: mean survival time, dose: 100.0 mg/kg/injection, schedule: Q01DX001 (ip), vehicle: carboxymethylcellulose (CMC)) 102 % of control; (endpoint: mean survival time, dose: 200.0 mg/kg/injection, schedule: Q01DX001 (ip), vehicle: carboxymethylcellulose (CMC)) 96 % of control; (endpoint: mean survival time, dose: 400.0 mg/kg/injection, schedule: Q01DX001 (ip), vehicle: carboxymethylcellulose (CMC)) 102 % of control.

Consider `NC(=S)OCCCCCn1cnc2c(=S)nc[nH]c21`, for which the T/C is 95 % of control under setting [3], 97 % of control under setting [4] and 105 % of control under setting [5].

As to `O=C(O)CCC(O)C(=O)O.[NH-]C1CCCCC1[NH-].[Pt+2]` (stereo not drawn), the T/C by setting is: (endpoint: median survival time, dose: 3.12 mg/kg/injection, schedule: Q04DX003 (ip), vehicle: saline) 120 % of control and 110 % of control; (endpoint: median survival time, dose: 6.25 mg/kg/injection, schedule: Q04DX003 (ip), vehicle: saline) 120 % of control; (endpoint: median survival time, dose: 25.0 mg/kg/injection, schedule: Q04DX003 (ip), vehicle: saline) 158 % of control; (endpoint: median survival time, dose: 50.0 mg/kg/injection, schedule: Q04DX003 (ip), vehicle: saline) 170 % of control and 186 % of control; (endpoint: median survival time, dose: 100.0 mg/kg/injection, schedule: Q04DX003 (ip), vehicle: saline) 365 % of control.

In the case of `O=C1c2ccccc2C(=O)N1Cc1cc([N+](=O)[O-])ccc1Cl`, the T/C runs as follows: (endpoint: mean survival time, dose: 50.0 mg/kg/injection, schedule: Q01DX009 (ip), vehicle: Klucel (hydroxypropylcellulose) (HPC)) 92 % of control; (endpoint: mean survival time, dose: 100.0 mg/kg/injection, schedule: Q01DX009 (ip), vehicle: Klucel (hydroxypropylcellulose) (HPC)) 94 % of control; (endpoint: mean survival time, dose: 200.0 mg/kg/injection, schedule: Q01DX009 (ip), vehicle: Klucel (hydroxypropylcellulose) (HPC)) 90 % of control.

Regarding `Nc1nc2c(nnn2C2CC(O)C(CO)C2)c(=O)[nH]1` (stereo not drawn), the T/C was 100 % of control under setting [1] and 104 % of control (endpoint: mean survival time, dose: 200.0 mg/kg/injection, schedule: Q01DX009 (ip), vehicle: saline with Tween-80).

Take `CC(=O)OC1CCC2(C)C(=CCC3C2CCC2(C)C(OC(=O)c4ccccc4)CCC32)C1` (stereo not drawn): the T/C is 104 % of control (endpoint: mean survival time, dose: 100.0 mg/kg/injection, schedule: Q04DX003 (ip), vehicle: acetone); 90 % of control (endpoint: mean survival time, dose: 200.0 mg/kg/injection, schedule: Q04DX003 (ip), vehicle: acetone); 86 % of control (endpoint: mean survival time, dose: 400.0 mg/kg/injection, schedule: Q04DX003 (ip), vehicle: acetone).

Consider `N=C(CN1CCCCC1)N1CCCCC1`, for which the T/C (endpoint: mean survival time, dose: 25.0 mg/kg/injection, schedule: Q04DX002 (ip), vehicle: saline) is 104 % of control; the T/C (endpoint: mean survival time, dose: 50.0 mg/kg/injection, schedule: Q04DX002 (ip), vehicle: saline) was 101 % of control; the T/C (endpoint: mean survival time, dose: 100.0 mg/kg/injection, schedule: Q04DX002 (ip), vehicle: saline) was 112 % of control.

In the case of `COc1ccc(OC)c(N=C2C(=O)Nc3ccc(Br)cc32)c1`, the T/C reads like this: under setting [9], 91 % of control; (endpoint: mean survival time, dose: 200.0 mg/kg/injection, schedule: Q04DX002 (ip), vehicle: saline with Tween-80) 91 % of control.

For `CC(C)(C)c1ccc(SC(=O)c2ccc(C(=O)Sc3ccc(C(C)(C)C)cc3)cc2)cc1`, the T/C by setting is: (endpoint: mean survival time, dose: 25.0 mg/kg/injection, schedule: Q04DX002 (ip), vehicle: saline with Tween-80) 91 % of control; (endpoint: mean survival time, dose: 50.0 mg/kg/injection, schedule: Q04DX002 (ip), vehicle: saline with Tween-80) 87 % of control; under setting [9], 91 % of control and 102 % of control.

`O=C(Nc1ccc(C2=NCCN2)cc1)c1cc(Cl)cc(C(=O)Nc2ccc(C3=NCCN3)cc2)c1`: the T/C was 101 % of control and 104 % of control (endpoint: mean survival time, dose: 62.5 mg/kg/injection, schedule: Q01DX009 (ip), vehicle: saline); 101 % of control and 103 % of control (endpoint: mean survival time, dose: 125.0 mg/kg/injection, schedule: Q01DX009 (ip), vehicle: saline); 107 % of control and 108 % of control (endpoint: mean survival time, dose: 250.0 mg/kg/injection, schedule: Q01DX009 (ip), vehicle: saline); 115 % of control and 110 % of control (endpoint: mean survival time, dose: 500.0 mg/kg/injection, schedule: Q01DX009 (ip), vehicle: saline).

For `CCCCCCCCCCCC[S+](C)C`, the T/C was 107 % of control (endpoint: mean survival time, dose: 10.0 mg/kg/injection, schedule: Q04DX003 (ip), vehicle: Klucel (hydroxypropylcellulose) (HPC)); 103 % of control (endpoint: mean survival time, dose: 20.0 mg/kg/injection, schedule: Q04DX003 (ip), vehicle: Klucel (hydroxypropylcellulose) (HPC)); 98 % of control (endpoint: mean survival time, dose: 40.0 mg/kg/injection, schedule: Q04DX003 (ip), vehicle: Klucel (hydroxypropylcellulose) (HPC)).

For the compound `O=C(Nc1cc2ccccc2o1)N1CCOCC1`, the T/C is 94 % of control (endpoint: mean survival time, dose: 50.0 mg/kg/injection, schedule: Q01DX001 (ip), vehicle: saline with Tween-80); 97 % of control under setting [3]; 100 % of control under setting [4].

Turning to `NC(=O)Nc1n[nH]c(-c2ccccc2)n1`, the T/C reads like this: under setting [2], 93 % of control; (endpoint: mean survival time, dose: 200.0 mg/kg/injection, schedule: Q04DX003 (ip), vehicle: saline with Tween-80) 91 % of control; (endpoint: mean survival time, dose: 400.0 mg/kg/injection, schedule: Q04DX003 (ip), vehicle: saline with Tween-80) 91 % of control.

For `CC(N)CC(=O)NO` (stereo not drawn), the T/C is 104 % of control under setting [6], 104 % of control under setting [7] and 108 % of control under setting [8].

Values taken from PubChem BioAssay AID256 (DTP/NCI, 2004).
